Results as given in the NIST ThermoML archive (doi:10.1021/je700339f).

Details: Liquid

ClCCCl [1,2-dichloroethane]
mass density [kg/m3]
Details | 288.15 K | 298.15 K
100 kPa | 1259.9 | 1245.5
500 kPa | 1260.3 | 1246.1
1000 kPa | 1260.8 | 1246.4
1500 kPa | 1261.2 | 1246.9
2000 kPa | 1261.6 | 1247.4
2500 kPa | 1262.2 | 1247.8
3100 kPa | 1262.7 | 1248.5
3600 kPa | 1263.2 | 1248.9
4100 kPa | 1263.6 | 1249.4
4600 kPa | 1264 | 1249.9
5100 kPa | 1264.5 | 1250.4
5600 kPa | 1264.9 | 1250.9
6100 kPa | 1265.4 | 1251.4
6600 kPa | 1265.8 | 1251.9
7100 kPa | 1266.2 | 1252.3
7600 kPa | 1266.7 | 1252.9
8100 kPa | 1267.2 | 1253.2
8600 kPa | 1267.6 | 1253.8
9200 kPa | 1268.2 | 1254.4
9600 kPa | 1268.6 | 1254.9
10000 kPa | – | 1255.1
10100 kPa | 1269 | –
10600 kPa | 1269.4 | 1255.9
11100 kPa | 1269.8 | 1256.4
11600 kPa | 1270.3 | 1256.7
12100 kPa | 1270.7 | 1257.3
12600 kPa | 1271 | 1257.6
13100 kPa | 1271.5 | 1258
13600 kPa | 1271.9 | 1258.5
14100 kPa | 1272.4 | –
14200 kPa | – | 1259
14700 kPa | 1272.9 | 1259.4
15200 kPa | 1273.3 | 1260
15700 kPa | 1273.7 | 1260.5
16200 kPa | – | 1260.8
16300 kPa | 1274.2 | –
16700 kPa | – | 1261.4
16800 kPa | 1274.6 | –
17200 kPa | 1275 | –
17300 kPa | – | 1261.9
17700 kPa | 1275.4 | –
17800 kPa | – | 1262.4
18200 kPa | 1275.8 | –
18300 kPa | – | 1262.8
18600 kPa | 1276.2 | –
18800 kPa | – | 1263.3
19000 kPa | 1276.5 | –
19200 kPa | – | 1263.7
19400 kPa | 1276.9 | –
19700 kPa | – | 1264.1
20000 kPa | 1277.3 | –
20200 kPa | – | 1264.5
